Data published in patent US7718768B2, “Biologically active peptide [sequence]” (CMS Peptides Patent Holding Company Limited, priority 2001, dated 2010).
“And” between values parts separate entries of the source, which are not always exact repeats. Equal entries are not always repeated. Marks after values point to notes of the source that are not given here. No end group written: not given here.

B1: IFN-γ: recombinant mouse interferon-γ, Beijing Biotech Inc.; positive control immunostimulant (protein, UniProt P01580 23-155, looked up)
Interferon gamma: HGTVIESLESLNNYFNSSGIDVEEKSLFLDIWRNWQKDGDMKILQSQIISFYLRLFEVLKDNQAISNNISVIESHLITTFFSNSKAKKDAFMSIAKFEVNNPQVQRQAFNELIRVVHQLLPESSLRKRKRSRC

How the values were obtained:
[1] = test system: T lymphocyte; design: species or system BALB/c mice; conditions: mouse, in vivo, ip
[2] = test system: mononuclear phagocyte; assay: carbon particle clearance test, phagocytotic activity of mononuclear phagocyte; format: in vivo, BALB/c mice; design: key: α = (cube root of K)×(body weight ÷ liver+spleen weight); conditions: IFN-γ and IL-2 groups 3×10^5 IU/kg/day, X ± SD
Outline: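 Mice received India ink (0.1 ml/kg i.v., 5-fold diluted) on day 16, one day after last dosing; blood at 1 and 5 min was lysed in 0.1% Na2CO3 and read at OD680. Clearance index K from log OD decline; phagocytic index α = ∛K × body weight/(liver+spleen weight); thymus and spleen indices as % body weight.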

[3] = test system: T lymphocyte; assay: T lymphocyte transformation test (ConA, MTT) on spleen cells of treated mice; format: in vivo, BALB/c mice; design: key: OD of assay wells divided by OD of control wells; conditions: IFN-γ and IL-2 groups 3×10^5 IU/kg/day, X ± SD
Description: The above substances were all dissolved in 0.5 ml saline and injected intraperitoneal (i.p.) for 15 continuous days, once per day.
(§1) Ten mice per group. The day after the last test substance administration, the mice were sacrificed by cervical dislocation. The spleen was isolated aseptically and manually dispersed in cold D-Hank's solution using an injection needle. The dispersed cell suspension was further sieved through a 100 gauge 150 μm diameter stainless steel sieve. After centrifugation at 200 g for 10 minutes, the supernatant was discarded. The cell pellet was re-suspended in 10 volume of Tris-NH4Cl buffer and then kept standing still for 10 minutes at room temperature. The suspended cells were collected by centrifugation at 150 g for 10 minutes. The cells were washed 2-4 times with cold D-Hank's solution by re-suspending and collecting by centrifugation with condition as described above. The washed cells were then diluted to the desired cell densities by RPMI-1640 culture medium, containing 10% fetal bovine serum.
(§2) Spleen cells of density 1×10^6/ml were placed onto a 96 wells cell culture plate, 100 μl/well, three parallel wells each of the assay sample and control sample per mouse. To the assay wells, 100 μl/well ConA of 100 μg/ml in RPMI-1640 was added, and 100 μl/well plain RPMI-1640 was used for the controls. The cells were incubated for 66 hrs at 37° C., 5% CO2. The cells were then pelleted by centrifugation at 150 g for 10 minutes.
(§3) 50 μl/well MTT of 1 mg/ml in RPMI-1640 was added to the cell pellet and the cells re-suspended by shaking for 2 minutes. The incubation was continued for 4 hours. The supernatant was discarded after centrifugation at 150 g for 10 minutes. 120 μl 40 mM HCl-2-propanol was added to the cell pellet and shaken for 3 minutes. to obtain OD570nm of each well referenced at 630 nm. An ELISA reader was used
(§4) Each mouse formed three assay wells and three control wells. The Stimulation Index (SI) of each mouse was obtained by first deriving the average OD of the three parallel wells, then dividing the value of the assay wells by the control wells.

[4] = test system: T lymphocyte; assay: T lymphocyte transformation in mice with ascitic fluid type liver cancer H22; format: in vivo, BALB/c mice
Description: as §1, with “Healthy BALB/c mice were randomized into peptide group, rmIFN-γ group, rhIL-2 group, and saline group, 15” for “Ten”, “group, and prepared into H22 carrying mice model as described in section Method 3. After implantation of” for “group. The day after”, “cancer cells, the” for “last”, “substances were administered for 15 days,” for “substance administration,”, “killed” for “sacrificed”, “100-gauge” for “100 gauge”
as §2
as §3, with “3 minutes. Use an ELISA reader to obtain” for “3 minutes. to obtain”, “630 nm.” for “630 nm. An ELISA reader was used”
as §4

[5] = test system: L1210 leukemia; assay: survival of mice with transplanted L1210 leukemia; format: in vivo, DBA/2 mice; conditions: for Survival index: versus saline group
Description: Intraperitoneal injection, once per day. […] Treatment of all groups with testing substance lasted for 30 days or until the animal died unless otherwise specified.
Stock L1210 cells were incubated in DMEM/F12 medium supplemented with 10% fetal bovine serum, 37° C./5% CO2 for 72 hrs, then washed 3-4 times with Hank's solution, and adjusted to 1×10^5 cells per liter. 0.1 ml of the cell suspension was implanted into the abdominal cavity of several healthy DBA mice for 6-8 days. The mice were then killed by cervical vertebra dislocation and their ascitic fluid collected aseptically. The cell concentration of the collected ascitic fluid was adjusted to 1×10^5 per ml with Hank's solution. 0.1 ml of the cell suspension was implanted into each of the testing animal and the survival data of the animals recorded. Treatment started in the testing animals as described in section Method 1. Mean survival day was obtained by the Kaplan-meier method in the Survival option of the SPSS software. If the animal survived longer than the experiment, the survival days was entered as the duration of the experiment. The survival index was calculated according to the following formula: Survival index=(mean survival days of treatment group−mean survival days of control group)÷mean survival days of control group 6. The Effect of Peptides on the Humoral Immunity of C57BL/6 Mice Bearing Transplanted B16 Melanoma, and that on the Metastatic Potential of the Inoculated Melanoma Cells

[6] = peptide 5 μg/kg/day i.p. 15 days
[7] = peptide 500 μg/kg/day i.p. 15 days
[8] = peptide 50 μg/kg/day i.p. 15 days
[9] = peptide 0.5 μg/kg/day i.p. 15 days
[10] = 3 × 10^5 IU/kg i.p. once per day

Molecule	activity of T lymphocyte in secreting IFN [1]	phagocytotic index [2, 6]	phagocytotic index [2, 7]	stimulation index (T lymphocyte transformation) [3, 6]	stimulation index (T lymphocyte transformation) [3, 9]	stimulation index (T lymphocyte transformation) [3, 7]	Stimulation index ([4]; 0.5 μg/kg i.p. once per day)	also measured
FNFVPP [CMS003]	106 ± 16 IU	6.9 ± 0.9*^	6.6 ± 0.7	1.6 ± 0.2				stimulation index (T lymphocyte transformation) [3, 8]: 2.2 ± 0.5*^@^
IGMESAGIHETTY [CMS016]	162 ± 19*^@^ IU	6.9 ± 0.8*^						
KAVGHLDDLPGAL [CMS008]		6.4 ± 0.5	6.5 ± 1.2		1.7 ± 0.3			
LRVAPEEHPTL [CMS009]	121 ± 15*^ IU	6.9 ± 0.9*^				1.7 ± 0.2		
PSIVGRPRHQGVM [CMS015]						1.9 ± 0.3*^@^		
PTTKTYFPHF [CMS001]				1.7 ± 0.2				stimulation index (T lymphocyte transformation) [3, 8]: 2.2 ± 0.5*^@^
Phe Val Asn Asp (FVND; listed as Sus scrofa) [CMS035]		6.9 ± 0.9*^					1.40 ± 0.13*^$	Stimulation index ([4]; 5 μg/kg i.p. once per day): 1.46 ± 0.16*^$; Survival days ([5]; 0.5 μg/kg i.p. once per day): 29.3 ± 15.4 days; Survival index ([5]; 0.5 μg/kg i.p. once per day): 76.1%
Pro Glu Asn Phe (PENF; listed as Sus scrofa) [CMS034]				1.5 ± 0.2			1.37 ± 0.10*^$	
RVAPEEHPTL [CMS011]	89 ± 18 IU	6.4 ± 1.1			1.6 ± 0.4			
Tyr Ser Leu (YSL; listed as Sus scrofa) [CMS024]			6.4 ± 1.0				1.46 ± 0.19*^$	phagocytotic index [2, 9]: 6.7 ± 0.5*^; phagocytotic index [2, 8]: 6.6 ± 0.7; Stimulation index ([4]; 5 μg/kg i.p. once per day): 1.45 ± 0.21*^$
VAPEEHPTLLTEAPLNPK [CMS010]	167 ± 13*^@^ IU and 142 ± 18*^@^ IU	7.1 ± 0.7*^			1.7 ± 0.3	2.0 ± 0.3*^@^		Stimulation index ([4]; 500 μg/kg i.p. once per day): 1.45 ± 0.21*^$
VGMGQKDSY [CMS019]		6.8 ± 0.6*^				1.8 ± 0.3	1.50 ± 0.19*^$	phagocytotic index [2, 8]: 6.7 ± 0.9*^; Survival days ([5]; 0.5 μg/kg i.p. once per day): 21.1 ± 5.8 days; Survival index ([5]; 0.5 μg/kg i.p. once per day): 26.8%
B1	139 ± 16 IU and 125 ± 18 IU and 124 ± 16 IU	6.4 ± 0.9	6.4 ± 0.9	1.6 ± 0.2	1.6 ± 0.2	1.6 ± 0.2		phagocytotic index [2, 9]: 6.4 ± 0.9; phagocytotic index [2, 8]: 6.4 ± 0.9; stimulation index (T lymphocyte transformation) [3, 8]: 1.7 ± 0.2; Stimulation index [4, 10]: 1.27 ± 0.14; Survival days [5, 10]: 15.6 ± 2.2 days
